The values below come from patent publication US8680282B2, “Cyclic inhibitors of carnitine palmitoyltransferase and treating cancer” (University Health Network, priority 2007, dated 2014).

By GI50 is commonly meant the concentration at which growth is held to half of that of the control.

Assay in all cases: Cancer cell growth inhibition, SRB assay
Assay [1] relates to H358. Format: cell-based, human. Further details: Percentage of Growth Inhibition: unit not given here. The conditions noted are these: SRB at Day 6; for Percentage of Growth Inhibition: H358, at 10 μM, NE = no activity at 10 micromolar; for GI50: Homo sapiens, NCI-H358, 144 h, H358 (Lung), triplicate. The method, then: (§1) Human cancer cells (MCF-7, H358, H460, HCT116 p53^+/+, HCT116 p53^−/−, A172, PC-3, DU-145 and SW626) were maintained in DMEM medium containing 10% Fetal Bovine Serum (FBS) (Invitrogen, Burlington, ON, Canada) and normal cells HMEC, 184A1, NHBE and PrEC were cultured in MEGM, MEGM plus transferring and cholera toxin, BEGM and PrEGM supplemented with various growth factors (Cambrex, Charles city, Iowa, USA), respectively.
(§2) Compounds of Examples S1 to S30, and 4-(carboxymethyl)-4-(6-(3-hexyloxy)phenoxy)hexanoamido)-1,1-dimethylpiperidinium 2,2,2-trifluoroactate (“Compound A”) were tested in this example. Each of the tested compounds was dissolved in DMSO and further diluted in cell culture medium for the experiments performed. Cells were seeded into 96-well plates with 1,500-5,000 cells/well according to cell growth rate. After 24 h, DMEM medium containing 10% FBS were changed to DMEM containing 3% FBS for cancer cells. The compound was added into the cell culture at the indicated concentrations, and the final concentration of DMSO was adjusted to a final concentration of 0.1%. Cell viability was assessed by Sulforhodamine B (SRB) assay at Day 6.
(§3) Sulforhodamine B (SRB) (Sigma, Oakville, ON, Canada) is a water-soluble dye that binds to the basic amino acids of the cellular proteins. Thus, colorimetric measurement of the bound dye provides an estimate of the total protein mass that is related to the cell number. The cells were fixed in situ by gently aspirating off the culture media and adding 50 ul of cold 10% Tri-chloroacetic Acid (TCA) per well and incubated at 4° C. for 30-60 min. The plates were washed five times with water and allowed to air dry for 5 min. 50 ul of 0.4% (w/v) SRB dissolved in 1% (v/v) acetic acid were added into each well, plates were then incubated at RT for 30 min for staining, washed four times with 1% acetic acid to remove any unbound dye and then allowed to air dry for 5 min. Stain was solubilized with 100 ul of 10 mM Tris pH 10.5 per well. Absorbance was read at 570 nm on a spectrophotometer. GI50 (compound concentration required for 50% of growth inhibition) was calculated using GraphPad Prism 4.0 software (GraphPad Software, Inc., San Diego, Calif., USA). Growth inhibition (%) was determined as percentage of cells remaining compared to the DMSO-treated cells as control.

Assay [2] relates to HCT-15. The class given is cell-based, human. Further details: Percentage of Growth Inhibition: scale not given here. The conditions noted are these: SRB at Day 6; for Percentage of Growth Inhibition: HCT-15, at 10 μM, NE = no activity at 10 micromolar; for GI50: Homo sapiens, 144 h, HCT-15 (Colon), triplicate.
In assay [3] the test system is SW480. Format: cell-based, human. The conditions noted are these: SRB at Day 6; for Percentage of Growth Inhibition: SW480, at 10 μM, NE = no activity at 10 micromolar; for GI50: Homo sapiens, 144 h, SW480 (Colon), triplicate.
Assay [4] relates to A172. Format: cell-based, human. The conditions noted are these: SRB at Day 6; for Percentage of Growth Inhibition: A172, at 10 μM, NE = no activity at 10 micromolar; for GI50: Homo sapiens, A 172, 144 h, A172 (Brain), triplicate. The method, then:
as §1, §2, §3

For assay [5], the system named is PC-3. Format: cell-based, human. The conditions noted are these: SRB at Day 6; for Percentage of Growth Inhibition: PC-3, at 10 μM, NE = no activity at 10 micromolar; for GI50: Homo sapiens, 144 h, PC-3 (Prostate), triplicate. The method, then:
as §1, §2, §3

In assay [6] the test system is A549. Format: cell-based, human. Further details: Percentage of Growth Inhibition: scale not given here. The conditions noted are these: SRB at Day 6; for GI50: Homo sapiens, 144 h, A549 (Lung), triplicate.
The subject of assay [7] is Caov-3. The class given is cell-based. The conditions noted are these: Homo sapiens, 144 h; Caov-3 (Ovarian); SRB at Day 6; triplicate.
The test system of assay [8] is Hs578T. Format: cell-based. The conditions noted are these: Homo sapiens, Hs-578T, 144 h; Hs578T (Breast); SRB at Day 6; triplicate.

SMILES strings stand for the structures.

As to `CCCCCc1ccc(S(=O)(=O)NC2(CC(=O)O)CCN(C)CC2)cc1` [Example S3, 4-(carboxymethyl)-1-methyl-4-(4-pentylphenylsulfonamido)piperidinium 2,2,2-trifluoroacetate], the results for the “Percentage of Growth Inhibition” value in assay [1], in assay [2] and in assay [3] were 0.4638, 0.06515% and 0.0383%, respectively.
As for `C[N+]1(C)CCC(CC(=O)O)(NC(=O)c2ccc(CCc3ccccc3)o2)CC1` [Example S5, 4-(Carboxymethyl)-1,1-dimethyl-4-(5-phenethylfuran-2-carboxamido)-piperidinium 2,2,2-trifluoroacetate], the “Percentage of Growth Inhibition” value in assay [1] is on record as 0.08927; in assay [4], 0.01342%.
Turning to `C[N+]1(C)CCC(CC(=O)O)(NC(=O)c2ccc(C#Cc3ccccc3)o2)CC1` [Example S6, 4-(Carboxymethyl)-1,1-dimethyl-4-(5-(phenylethynyl)furan-2-carboxamido)-piperidinium 2,2,2-trifluoroacetate], the “Percentage of Growth Inhibition” value in assay [1] is given as 0.1074; in assay [5], 0.03591%; in assay [4] it was 0.05672%; in assay [3], 0.03677%.
Turning to `CCCCCCCCc1ccc(NS(=O)(=O)NC2(CC(=O)O)CCN(C)CC2)cc1` [Example S7, 4-(carboxymethyl)-1-methyl-4-(N-(4-octylphenyl)sulfamoylamino)-piperidinium 2,2,2-trifluoroacetate], the GI50 came out at 20 µM in assay [1]; 52 µM in assay [6]; 6 µM in assay [5]; 15 µM in assay [4]; 80 µM in assay [2]; 22 µM in assay [7]. The GI50 in assay [3] was 68 µM; in assay [8], more than 50 µM.
As for `CCCCCCCCc1ccc(NS(=O)(=O)NC2(CC(=O)O)CC[N+](C)(C)CC2)cc1` [Example S8, 4-(carboxymethyl)-1,1-dimethyl-4-(N-(4-octylphenyl)sulfamoylamino)piperidinium 2,2,2-trifluoroacetate], the GI50 in assay [1] was 0.9 µM; in assay [6] it was 10 µM; in assay [5], 1.7 µM; in assay [4] it was 2.2 µM; in assay [2] it was 9 µM; in assay [7] it was 2 µM. The 50% growth inhibitory concentration (GI50) in assay [3] was 2.8 µM; in assay [8], 26 µM.
For the compound `CCCCCCCCc1ccc(NC(=O)NC2(CC(=O)O)CCC[NH+](C)C2)cc1` (stereo not drawn) [Example S9, 3-(Carboxymethyl)-1-methyl-3-(3-(4-octylphenyl)ureido)piperidinium 2,2,2-trifluoroacetate], the “Percentage of Growth Inhibition” value was 0.451% in assay [6] (A549, at 10 μM, NE = no activity at 10 micromolar); 0.2585% in assay [5]; 0.00756% in assay [3].
With `CCCCCCCCc1ccc(NC(=O)NC2(CC(=O)O)CCC[N+](C)(C)C2)cc1` (stereo not drawn) [Example S10, 3-(carboxymethyl)-1,1-dimethyl-3-(3-(4-octylphenyl)ureido)-piperidinium 2,2,2-trifluoroacetate], the GI50 is 1 µM in assay [1]; 73 µM in assay [6]; 0.9 µM in assay [5]; 4.6 µM in assay [4]; 16 µM in assay [2]; 0.7 µM in assay [3]. In addition, in assay [8], the GI50 is 39 µM.
For the compound `CCCCCCCCc1ccc(NS(=O)(=O)NC2(CC(=O)O)CCCN(C)C2)cc1` (stereo not drawn) [Example S15, 3-(carboxymethyl)-1-methyl-3-(N-(4-octylphenyl)sulfamoylamino)-piperidinium 2,2,2-trifluoroacetate], the GI50 in assay [1] is 12 µM; in assay [6] it was 7.5 µM; in assay [5] it was 2.8 µM; in assay [4] it was 2.7 µM; in assay [2], 32 µM; in assay [7] it was 4 µM. For the same compound, the GI50 in assay [3] was 36 µM; in assay [8] it was 25 µM.
`CCCCCc1ccc(S(=O)(=O)NC2(CC(=O)O)CC[N+](C)(C)C2)cc1` (stereo not drawn) [Example S20, 3-(carboxymethyl)-1,1-dimethyl-3-(4-pentylphenylsulfonamido)-pyrrolidinium 2,2,2-trifluoroacetate]: the “Percentage of Growth Inhibition” value in assay [1] was determined as 0.2773; in assay [4], 0.1176%; in assay [3] it was 0.02596%.
`CCCCCCCCCCc1ccc(C(=O)NC2(CC(=O)O)CCN(C)C2)cc1` (stereo not drawn) [Example S21, 3-(carboxymethyl)-3-(4-decylbenzamido)-1-methylpyrrolidinium 2,2,2-trifluoroacetate]: the “Percentage of Growth Inhibition” value is given as 0.6802 in assay [1]; 0.1562% in assay [5]; 0.1417% in assay [4]; 0.04235% in assay [2]; 0.09568% in assay [3].
Turning to `CCCCCCCCCCc1ccc(C(=O)NC2(CC(=O)O)CC[N+](C)(C)C2)cc1` (stereo not drawn) [Example S22, 3-(Carboxymethyl)-3-(4-decylbenzamido)-1,1-dimethylpyrrolidinium 2,2,2-trifluoroacetate], the “Percentage of Growth Inhibition” value in assay [1] stood at 0.8129; in assay [5], 0.4436%; in assay [4] it was 0.1249%; in assay [2], 0.07473%; in assay [3] it was 0.6141%.
In the case of `CCCCCCCCc1ccc(NC(=O)NC2(CC(=O)O)CNC2)cc1` [Example S23, 3-(carboxymethyl)-3-(3-(4-octylphenyl)ureido)azetidinium 2,2,2-trifluoroacetate], the GI50 is 14 µM in assay [1]; more than 50 µM in assay [6]; 24 µM in assay [5]; 7.2 µM in assay [4]; 28 µM in assay [2]; 17 µM in assay [7]. The GI50 in assay [3] amounted to 28 µM; in assay [8], 45 µM.
Consider `CCCCCCCCc1ccc(NC(=O)NC2(CC(=O)O)C[N+](C)(C)C2)cc1` [Example S24, 3-(Carboxymethyl)-1,1-dimethyl-3-(3-(4-octylphenyl)ureido)azetidinium 2,2,2-trifluoroacetate], for which the GI50 in assay [1] came to 19 µM; in assay [6], 36 µM; in assay [5] it was 21 µM; in assay [4], 41 µM; in assay [2] it was 38 µM; in assay [7], 45 µM. For the same compound, the GI50 in assay [3] was found to be 29 µM; in assay [8] it was 46 µM.
With `O=C(O)CC1(NC(=O)c2ccc(C#Cc3ccccc3)o2)CNC1` [Example S26, 3-(carboxymethyl)-3-(5-(phenylethynyl)furan-2-carboxamido)-azetidinium 2,2,2-trifluoroacetate], the results for the “Percentage of Growth Inhibition” value in assay [1] and in assay [3] were 0.1437 and 0.04449%, respectively.
Take `CCCCCCCCc1ccc(N(C)S(=O)(=O)NC2(CC(=O)O)CCC[N+](C)(C)C2)cc1` (stereo not drawn) [Example S30, 3-(carboxymethyl)-1,1-dimethyl-3-(N-methyl-N-(4-octylphenyl)-sulfamoylamino)piperidinium 2,2,2-trifluoroacetate]: the GI50 stood at 2.9 µM in assay [1]; 1 µM in assay [6]; 0.7 µM in assay [5]; 0.6 µM in assay [4]; 14 µM in assay [2]; 3.5 µM in assay [3]. Besides, the GI50 in assay [8] was found to be 3 µM.
